Source: ChEMBL document CHEMBL1201862, “PubChem BioAssay data set” (2004)
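Results reflect a 48-hour exposure of cells in 96-well plates to compound at five concentrations. GI50 is the concentration that inhibits growth by half.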 Activity calls are given as the source filed them. No stated cut-off is given here; in the data, active = GI50 up to about 1.1 µM and inactive = higher.

Columns and labels:
Test in all cases: inhibition of tumour cell growth, NCI panel, 48 h
[1] = tested on: A549
[2] = tested on: ACHN
[3] = tested on: BT-549
[4] = tested on: CAKI-1
[5] = tested on: CCRF-CEM
[6] = tested on: COLO 205
[7] = tested on: DU-145
[8] = tested on: EKVX
[9] = tested on: HCC 2998
[10] = tested on: HCT-116
[11] = tested on: HOP-62
[12] = tested on: HOP-92
[13] = tested on: HT-29
[14] = tested on: Hs-578T
[15] = tested on: IGROV-1
[16] = tested on: K562
[17] = tested on: KM12
[18] = tested on: LOX IMVI
[19] = tested on: M14
[20] = tested on: MCF7
[21] = tested on: MDA-MB-231
[22] = tested on: MDA-MB-435
[23] = tested on: MDA-N
[24] = tested on: MOLT-4
[25] = tested on: Malme-3M
[26] = tested on: NCI-H226
[27] = tested on: NCI-H23
[28] = tested on: NCI-H460
[29] = tested on: NCI-H522
[30] = tested on: NCI/ADR-RES
[31] = tested on: OVCAR-3
[32] = tested on: OVCAR-4
[33] = tested on: OVCAR-5
[34] = tested on: OVCAR-8
[35] = tested on: PC-3
[36] = tested on: RPMI-8226
[37] = tested on: RXF 393
[38] = tested on: SF-268
[39] = tested on: SF-295
[40] = tested on: SF-539
[41] = tested on: SK-MEL-28
[42] = tested on: SK-MEL-2
[43] = tested on: SK-MEL-5
[44] = tested on: SK-OV-3
[45] = tested on: SN12C
[46] = tested on: SNB-19
[47] = tested on: SNB-75
[48] = tested on: SR
[49] = tested on: SW-620
[50] = tested on: T47D
[51] = tested on: TK-10
[52] = tested on: U-251
[53] = tested on: UACC-257
[54] = tested on: UACC-62
[55] = tested on: UO-31
[56] = tested on: 786-0
[57] = tested on: HCT-15
[58] = tested on: HL-60
[59] = tested on: A498

## COc1ccc2c(c1)CCN=C2Cc1cc(OC)c(OC)cc1CCCl
[1]
  GI50: 96.4 µM (inactive)
[2]
  GI50: 57 µM (inactive)
[3]
  GI50: > 100 µM (inactive)
[4]
  GI50: > 100 µM (inactive)
[5]
  GI50: > 100 µM (inactive)
[6]
  GI50: 58.7 µM (inactive)
[7]
  GI50: > 100 µM (inactive)
[8]
  GI50: > 100 µM (inactive)
[9]
  GI50: 30.5 µM (inactive)
[10]
  GI50: 44.5 µM (inactive)
[11]
  GI50: 3.08 µM (inactive)
[12]
  GI50: 11.1 µM (inactive)
[13]
  GI50: 26.9 µM (inactive)
[14]
  GI50: 22.1 µM (inactive)
[15]
  GI50: 52.4 µM (inactive)
[16]
  GI50: 81.1 µM (inactive)
[17]
  GI50: 33.3 µM (inactive)
[18]
  GI50: 31.9 µM (inactive)
[19]
  GI50: 21.2 µM (inactive)
[20]
  GI50: 52.2 µM (inactive)
[21]
  GI50: 32.1 µM (inactive)
[22]
  GI50: 52 µM (inactive)
[23]
  GI50: 53.8 µM (inactive)
[24]
  GI50: 54.8 µM (inactive)
[25]
  GI50: 27.4 µM (inactive)
[26]
  GI50: 64.6 µM (inactive)
[27]
  GI50: 52 µM (inactive)
[28]
  GI50: 69.8 µM (inactive)
[29]
  GI50: 21.7 µM (inactive)
[30]
  GI50: > 100 µM (inactive)
[31]
  GI50: 22.7 µM (inactive)
[32]
  GI50: > 100 µM (inactive)
[33]
  GI50: 17.3 µM (inactive)
[34]
  GI50: > 100 µM (inactive)
[35]
  GI50: 48 µM (inactive)
[36]
  GI50: 55 µM (inactive)
[37]
  GI50: 24.9 µM (inactive)
[38]
  GI50: 48.6 µM (inactive)
[39]
  GI50: 30.9 µM (inactive)
[40]
  GI50: 16.2 µM (inactive)
[41]
  GI50: 66.2 µM (inactive)
[42]
  GI50: > 100 µM (inactive)
[43]
  GI50: 17.5 µM (inactive)
[44]
  GI50: > 100 µM (inactive)
[45]
  GI50: 48.4 µM (inactive)
[46]
  GI50: 97.1 µM (inactive)
[47]
  GI50: > 100 µM (inactive)
[48]
  GI50: 94.6 µM (inactive)
[49]
  GI50: > 100 µM (inactive)
[50]
  GI50: 53.1 µM (inactive)
[51]
  GI50: 35.7 µM (inactive)
[52]
  GI50: 86.7 µM (inactive)
[53]
  GI50: 45.4 µM (inactive)
[54]
  GI50: 53.8 µM (inactive)
[55]
  GI50: 29.2 µM (inactive)

## CC(NS(C)(=O)=O)c1ccccc1 (centres undefined)
[56]
  GI50: > 100 µM (inactive)
[1]
  GI50: > 100 µM (inactive)
[3]
  GI50: > 100 µM (inactive)
[4]
  GI50: > 100 µM (inactive)
[5]
  GI50: > 100 µM (inactive)
[6]
  GI50: > 100 µM (inactive)
[7]
  GI50: > 100 µM (inactive)
[9]
  GI50: > 100 µM (inactive)
[10]
  GI50: > 100 µM (inactive)
[57]
  GI50: > 100 µM
[58]
  GI50: > 100 µM (inactive)
[11]
  GI50: > 100 µM (inactive)
[13]
  GI50: > 100 µM (inactive)
[14]
  GI50: > 100 µM (inactive)
[15]
  GI50: > 100 µM (inactive)
[16]
  GI50: > 100 µM (inactive)
[17]
  GI50: > 100 µM (inactive)
[18]
  GI50: > 100 µM (inactive)
[19]
  GI50: > 100 µM (inactive)
[20]
  GI50: > 100 µM (inactive)
[21]
  GI50: > 100 µM (inactive)
[22]
  GI50: > 100 µM (inactive)
[23]
  GI50: > 100 µM (inactive)
[24]
  GI50: > 100 µM (inactive)
[25]
  GI50: > 100 µM (inactive)
[26]
  GI50: > 100 µM (inactive)
[27]
  GI50: > 100 µM (inactive)
[28]
  GI50: > 100 µM (inactive)
[29]
  GI50: > 100 µM (inactive)
[30]
  GI50: > 100 µM (inactive)
[31]
  GI50: > 100 µM (inactive)
[32]
  GI50: > 100 µM (inactive)
[33]
  GI50: > 100 µM (inactive)
[34]
  GI50: > 100 µM (inactive)
[35]
  GI50: > 100 µM (inactive)
[36]
  GI50: > 100 µM (inactive)
[37]
  GI50: > 100 µM (inactive)
[39]
  GI50: > 100 µM (inactive)
[40]
  GI50: > 100 µM (inactive)
[41]
  GI50: > 100 µM (inactive)
[42]
  GI50: > 100 µM (inactive)
[43]
  GI50: > 100 µM (inactive)
[44]
  GI50: > 10 µM (inactive)
[45]
  GI50: > 100 µM (inactive)
[46]
  GI50: > 100 µM (inactive)
[47]
  GI50: > 100 µM (inactive)
[48]
  GI50: > 100 µM (inactive)
[49]
  GI50: > 100 µM (inactive)
[50]
  GI50: > 100 µM (inactive)
[51]
  GI50: > 100 µM (inactive)
[52]
  GI50: > 100 µM (inactive)
[53]
  GI50: > 100 µM (inactive)
[54]
  GI50: > 100 µM (inactive)
[55]
  GI50: > 100 µM (inactive)

## CC1OC(OC2C(O)COC(OC3C(C)OC(OC4C(OC(=O)[C@]56CCC(C)(C)C[C@@H]5C5=CCC7[C@@]8(C)C[C@H](O)[C@H](OC9OC(CO)C(O)C(OC%10OC(CO)C(O)C(O)C%10O)C9O)[C@@](C)(CO)[C@@H]8CC[C@@]7(C)[C@]5(C)CC6)OCC(O)C4O)C(O)C3OC3OCC(O)(CO)C3O)C2O)C(O)C(O)C1O (some centres undefined)
[56]
  GI50: 8.09 µM (inactive)
[59]
  GI50: 9.62 µM (inactive)
[1]
  GI50: 6.61 µM (inactive)
[2]
  GI50: 9.68 µM (inactive)
[3]
  GI50: 5.19 µM (inactive)
[4]
  GI50: 3.98 µM (inactive)
[5]
  GI50: 6.14 µM (inactive)
[6]
  GI50: 6.31 µM (inactive)
[7]
  GI50: 8.28 µM (inactive)
[8]
  GI50: 5.83 µM (inactive)
[9]
  GI50: 8.09 µM (inactive)
[10]
  GI50: 11.2 µM (inactive)
[57]
  GI50: 7.71 µM
[11]
  GI50: 9.95 µM (inactive)
[12]
  GI50: 10.2 µM (inactive)
[14]
  GI50: 11.3 µM (inactive)
[16]
  GI50: 22.7 µM (inactive)
[17]
  GI50: 9.48 µM (inactive)
[18]
  GI50: 8.51 µM (inactive)
[19]
  GI50: 6.15 µM (inactive)
[20]
  GI50: 12.4 µM (inactive)
[21]
  GI50: 8.05 µM (inactive)
[22]
  GI50: 11.5 µM (inactive)
[23]
  GI50: 10.2 µM (inactive)
[24]
  GI50: 9.77 µM (inactive)
[25]
  GI50: 5 µM (inactive)
[26]
  GI50: 12.3 µM (inactive)
[27]
  GI50: 5.87 µM (inactive)
[28]
  GI50: 12.7 µM (inactive)
[29]
  GI50: 7.96 µM (inactive)
[30]
  GI50: 7.35 µM (inactive)
[31]
  GI50: 9.64 µM (inactive)
[32]
  GI50: 7.94 µM (inactive)
[33]
  GI50: 9.02 µM (inactive)
[34]
  GI50: 9.84 µM (inactive)
[35]
  GI50: 6 µM (inactive)
[36]
  GI50: 13.6 µM (inactive)
[37]
  GI50: 7.67 µM (inactive)
[38]
  GI50: 10 µM (inactive)
[39]
  GI50: 9.66 µM (inactive)
[40]
  GI50: 8.83 µM (inactive)
[41]
  GI50: 6.24 µM (inactive)
[43]
  GI50: 8.05 µM (inactive)
[44]
  GI50: 9.29 µM (inactive)
[45]
  GI50: 3.66 µM (inactive)
[46]
  GI50: 8.89 µM (inactive)
[47]
  GI50: 11.2 µM (inactive)
[48]
  GI50: 6.28 µM (inactive)
[49]
  GI50: 6.43 µM (inactive)
[50]
  GI50: 6.92 µM (inactive)
[51]
  GI50: 9.79 µM (inactive)
[52]
  GI50: 10.4 µM (inactive)
[53]
  GI50: 9.1 µM (inactive)
[54]
  GI50: 12.9 µM (inactive)
[55]
  GI50: 3.56 µM (inactive)
